Assays:
Type in all cases: cell-based, mouse
[1] = system: LPS stimulated neutrophils; assay: LPS-induced cytokine mRNA expression in neutrophils, quantitative RT-PCR; conditions: LPS 10 ng/ml, protein 10 nM, 4 hours; FIG. 1-4
Experimental: Isolation of neutrophils. Neutrophils were purified from bone marrow cell suspensions as previously described by Abraham, et al., J Immunol 170:5644 (2003), Asehnoune, et al., J Immunol 172:2522 (2004), and Strassheim, et al., Am J Physiol Cell Physiol 286:C683 (2004). Briefly summarized, to obtain the bone marrow cell suspension, the femur and tibia of a mouse were flushed with 5 ml RPMI 1640/penicillin/streptomycin and the cells passed through a glass wool column, and pelleted by centrifugation at 1000 rpm for 10 minutes. […] Neutrophil purity, as determined by Wright's stained cytospin preparations, was greater than 97%. Cell viability, as determined by trypan blue exclusion, was consistently greater than 98%.
(§1) Real time quantitative RT-PCR. Quantitative RT-PCR to measure neutrophil cytokine expression was performed as previously described by Abraham, et al., J Immunol 170:5644 (2003), and Park, et al., Am J Physiol Cell Physiol 284:C870 (2003). […] For each mRNA detected, a fluorogenic probe and two primers (forward and reverse) for PCR were synthesized (Applied Biosystems, Foster City, Calif.). […]
All reagents used in the one step RT-PCR reactions were purchased from Applied Biosystems. […] The amount of cytokine mRNA was determined from a standard curve with 10 fold dilutions of known amounts of target RNA for each primer and probe set. […]

integrins = assay: RGD or RGE peptide added to neutrophil cultures containing uPA and LPS; conditions: LPS 10 ng/ml, scuPA 10 nM, peptide 50 μM, 4 hours; FIG. 7
Experimental: (§2) Isolation of neutrophils. Neutrophils were purified from bone marrow cell suspensions as previously described by Abraham, et al., J Immunol 170:5644 (2003), Asehnoune, et al., J Immunol 172:2522 (2004), and Strassheim, et al., Am J Physiol Cell Physiol 286:C683 (2004). Briefly summarized, to obtain the bone marrow cell suspension, the femur and tibia of a mouse were flushed with 5 ml RPMI 1640/penicillin/streptomycin and the cells passed through a glass wool column, and pelleted by centrifugation at 1000 rpm for 10 minutes. The cell pellets were resuspended in 0.3% FCS/PBS and then incubated with 20 μl of primary antibodies specific for cell surface markers F4/80, CD4, CD45R, CD5, and TER19 for 15 minutes, rotating at 4° C. This custom cocktail (Stem Cell Technologies, Vancouver, British Columbia) is specific for T and B cells, RBC, monocytes and macrophages. Anti-biotin tetrameric antibody complexes (100 μl) were then added, and the cells incubated for 15 minutes, rotating at 4° C. Following this, 60 μl of colloidal magnetic dextran iron particles was added to the suspension and incubated for 15 minutes, rotating at 4° C. The entire cell suspension was then placed into a column, surrounded by a magnet. The T cells, B cells, RBC, monocytes and macrophages were captured in the column, allowing the neutrophils to pass through by negative selection methods. Neutrophil purity, as determined by Wright's stained cytospin preparations, was greater than 97%. Cell viability, as determined by trypan blue exclusion, was consistently greater than 98%.
as §1

[2] = system: LPS stimulated neutrophils; assay: Cytokine ELISA of culture supernatants of LPS stimulated neutrophils; conditions: LPS 10 ng/ml, protein 10 nM, 4 hours, FIG. 5
Experimental: as §2, with “Anti-biotin tetrameric antibody complexes (100 μl) were then added, and the cells incubated for 15 minutes, rotating at 4° C. Following this, 60 μl of colloidal magnetic dextran iron particles was added to the suspension and incubated for 15 minutes, rotating at 4° C. The entire cell suspension was then placed into a column, surrounded by a magnet. The T cells, B cells, RBC, monocytes and macrophages were captured in the column, allowing the neutrophils to pass through by negative selection methods.” left out
Cytokine ELISA. Immunoreactive TNF-α, IL-1β, and MIP-2 were quantified using commercially available ELISA kits (R&D Systems, Minneapolis, Minn.), according to manufacturer's instructions and as described previously by Yum, et al., J Immunol 167:6601 (2001). […]

Row | Molecule | enhancement of LPS-induced cytokine mRNA expression (IL-1β, TNF-α, MIP-2) compared with scuPA [1] | increased production of IL-1β, TNF-α, and MIP-2 produced by co-culture of LPS stimulated neutrophils with scuPA (integrins) | uPA-induced potentiation of neutrophil responses (integrins) | neutrophil production (secretion) of IL-1β, TNF-α, and MIP-2 [2]
1 | ATF: amino terminal fragment of uPA, which contains the uPA GFD and KD | to the same extent as did scuPA |  |  | 
2 | RGD: RGD peptide that blocks interactions with integrins |  | prevented | blocked | 
3 | RGE: RGE peptide that serves as a control |  |  | not | 
4 | KD: purified kringle domain of uPA (amino acids 47-135), SEQ ID NO:2 epitope (protein) SKTCYEGNGHFYRGKASTDTMGRPCLPWNSATVLQQTYHAHRSDALQLGLGKHNYCRNPDNRRRPWCYVQVGLKPLVQECMVHDCA | to the same extent or even a greater extent than did scuPA |  |  | to the same extent as did intact scuPA

— patent US8119128B2, “Antibodies that bind urokinase-type plasminogen activator and epitopes therefor” (The Regents of the University of Colorado, a body corporate, priority 2004, dated 2012)
